Results from patent US7034047B2, “Triazole derivative” (Astellas Pharma, Inc., priority 2000, dated 2006).
pIC50: −log10 of the molar value.

How the values were obtained:
[1] = molecular target: T1, GLYT1 subtype of the glycine transporter (Rattus norvegicus, UniProt P28572); test: [3H]-glycine uptake assay in C6 glioma cells (action of inhibiting glycine transporter); assay type: cell-based; settings: 20 min at 37° C., read-out: GLYT-inhibiting activity IC50
T1 construct: C6 glioma cell expressing GLYT1 subtype of the glycine transporter; host or cells: C6 glioma cells
T1 sequence (P28572 1-638): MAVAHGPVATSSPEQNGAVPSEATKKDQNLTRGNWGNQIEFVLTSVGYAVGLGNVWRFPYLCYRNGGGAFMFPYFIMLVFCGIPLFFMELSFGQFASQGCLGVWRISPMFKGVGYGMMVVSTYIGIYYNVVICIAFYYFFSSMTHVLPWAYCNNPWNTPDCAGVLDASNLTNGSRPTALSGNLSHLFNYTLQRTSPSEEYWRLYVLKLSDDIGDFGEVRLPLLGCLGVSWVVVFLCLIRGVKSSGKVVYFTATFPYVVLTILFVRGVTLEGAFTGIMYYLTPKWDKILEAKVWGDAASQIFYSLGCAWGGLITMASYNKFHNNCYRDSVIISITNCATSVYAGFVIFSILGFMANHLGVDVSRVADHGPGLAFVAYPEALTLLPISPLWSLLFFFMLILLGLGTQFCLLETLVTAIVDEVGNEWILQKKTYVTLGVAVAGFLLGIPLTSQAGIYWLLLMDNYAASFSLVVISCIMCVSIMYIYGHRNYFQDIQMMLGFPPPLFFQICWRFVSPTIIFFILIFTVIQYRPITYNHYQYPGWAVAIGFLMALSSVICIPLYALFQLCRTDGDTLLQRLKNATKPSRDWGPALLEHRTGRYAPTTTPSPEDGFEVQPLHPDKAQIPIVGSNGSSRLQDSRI
Protocol: 1. Action of Inhibiting Glycine Transporter
C6 glioma cell (American Type Culture Collection) was cultured in DMEM containing 10% fetal bovine serum, 100 units/ml penicillin G and 0.1 mg/ml streptomycin sulfate in a CO2 incubator under conditions of 5% CO2 and 37° C.
[^3H]-glycine uptake was performed by the method of Gomeza, et al.
C6 glioma cells were plated out at a concentration of 2×10^4 cells/well in a 96-well plate (Culturplate, Packard Co.), for culturing for 2 days. Subsequently, [^3H]-glycine uptake was tested. The cell was rinsed once in a buffer (150 mM NaCl, 5 mM KCl, 1 mM CaCl2, 1 mM MgCl2, 10 mM glucose, 5 mM L-alanine, 10 mM Hepes-Na, pH 7.4), followed by subsequent addition of the buffer, for incubation at 37° C. for 10 minutes.
After incubation, the buffer was exchanged to a reaction buffer including [^3H]-glycine (about 0.2 μM, 41 Ci/mmol, New England Nuclear)and a compound to be assessed, for incubation at 37° C. for another 20 minutes. After 20-min reaction, the reaction mixture was rinsed in ice-cold PBS (phosphate buffered saline). The cell was dissolved in 0.1N NaOH solution, to assay the radioactivity incorporated with a liquid scintillation counter. The specific incorporation was defined as a portion substituted with 3 mM sarcosine in the total incorporation. The test compound was assessed by determining the incorporation-inhibiting ratio of the specific incorporation.

[2] = tested on: ECS-induced learning disability; test: Electric convulsion shock (ECS)-induced learning disability (mouse passive avoidance test); assay type: in vivo, male ddY mouse; settings: dosed intraperitoneally; step-through latency, p<0.05
Excerpt: 4. Electric Convulsion Shock (ECS)—Induced Learning Disability (Mouse Passive Avoidance Test)
With reference to the previous report (Eur J Pharmacology, 321; 273–278, 1997), assessment was done as follows. • Animal: male ddY mouse (Nippon SLC; age 5 weeks at training) was used. 16 animals were used per one group. <Experimental Procedures> Preparation of Chemical Agents A test compound for oral administration was suspended in aqueous 0.5% methyl cellulose solution, and for intraperitoneal administration was suspended in solution dissolved 0.5% of methyl cellulose solution in saline The dose administered was 10 ml per 1 kg·body weight. As a placebo of the test compound, 10 ml of aqueous 0.5% methyl cellulose solution for oral administration and 10 ml of 0.5% methyl cellulose solution in saline for intraperitoneal administration (herein referred to as vehicle) was administrated. […] Test (24 Hours after the Training) • (1) The animals were left in the experimental room for one hour or longer. • (2) After the mice were placed in the bright room and left for 30 seconds, the guillotine door was opened. • (3) The time (step-through latency) required for the mice to cross the sensor of the dark room from the opening of the guillotine door was counted. […] A significance was determined at p<0.05.

SMILES: CC(C)c1nnc(-c2ccc(-c3ccccc3)cc2)n1-c1ccccc1F [Production Example 1, 3-Biphenyl-4-yl-4-(2-fluorophenyl)-5-isopropyl-4H-1,2,4-triazole]
- pIC50 [1]: 6.44
- minimum effective dose [2]: 10 mg/kg
